In patent publication US12546776B2, “Modulation of protein degradation” (Orionis Biosciences, Inc., priority 2019, dated 2026):

How the values were obtained:
[1] = patients with AL amyloidosis during lenalidomide treatment; cited from earlier work
[2] = target: ASS1 (Homo sapiens, UniProt P00966+Q96SW2); assay: ASS1 degradation by Western blot in HEK293T cells co-transfected with FLAG-ASS1 and HA-CRBN; format: cell-based; details: 0.3-30 μM, 24 hours
Procedure: FIG. 4 Ligand-induced recruitment of ASS1 to CRBN is associated with degradation of ASS1 in living cells. In this study we examined whether ligand-induced recruitment of ASS1 to CRBN could lead to subsequent ASS1 degradation (as triggered by interaction with the CRBN E3 ligase). HEK293 cells were co-transfected with cDNA constructs encoding Flag-tagged ASS1 and HA-tagged CRBN and exposed to increasing concentration of CC220 for 24 hours. Samples were generated for Western blot analysis to determine steady state levels of ASS1 across the different experimental conditions, assessed using and anti-Flag antibody. As shown, loss of ASS1 expression (but not actin control protein expression) was observed specifically in response to CC220 exposure, and in a dose-dependent manner.
In this study we examined whether CC220 CRBN-ligand-induced recruitment of ASS1 to CRBN could lead to subsequent ASS1 degradation (as triggered by interaction with the CRBN E3 ligase). For this analysis, cells were transfected with FLAG-tagged ASS1 and HA-tagged CRBN encoding constructs, and any change in steady state levels of ASS1 in response to incubation of cells with CC220 for a specified time was assessed by Western blot analysis. […] Next, cells were lysed and a fraction of the lysate was analyzed via SDS-PAGE and Western Blot analysis with an anti-FLAG antibody (Sigma). […]

[3] = target: T1, CRBN (Homo sapiens, UniProt Q96SW2); assay: MAPPIT-like ligand competition assay for CRBN binding in HEK293T cells (trimethoprim-lenalidomide hybrid ligand, luciferase reporter); format: cell-based; details: competition for binding to CRBN
T1 construct: expressed in transfected cells; host or cells: HEK293T

[4] = target: T2, CRBN-ASS1 interaction (Homo sapiens, UniProt Q96SW2); assay: Co-immunoprecipitation of Flag-ASS1 and HA-CRBN in HEK293T cells; format: cell-based; details: 1 μM and 3 μM, 24 hours
T2 construct: expressed in transfected cells; host or cells: HEK293T
From the text: FIGS. 3A-B Ligand-induced CRBN-ASS1 interaction in living cells—as assessed by co-immunoprecipitation analysis. In this study we examined the ability of Flag-tagged ASS1 (or Flag tagged gp130-ASS1 fusion protein, as identified in the assay described in FIG. 1) and HA-tagged CRBN to interact in living cells upon transfection and expression of each construct in HEK293T cells—in the presence or absence of the CRBN IMiD ligand CC220. Ability of HA-tagged CRBN to interact in response to CC220 with the known CRBN neosubstrate IKZF3 was also examined (with IKZF3 expressed as a Flag-tagged IKZF3 fusion protein). […] Western analysis was performed with an anti-HA antibody to determine extent of immunoprecipitated CRBN in each sample (expected to vary in dependence of CC220 exposure) and an anti-Flag antibody to determine extent of immunoprecipitated Flag-ASS1, Flag-gp130-ASS1 or Flag-IKZF3 in each sample (which would be expected to be the same). […]
In this study we assessed via co-immunoprecipitation of protein complexes the ability of the CRBN ligand CC220 to induce an interaction with ASS1 when expressed in HEK293 cells. […] FLAG-tagged ASS1 was detected using an anti-FLAG Ab (SIGMA) respectively (FIG. 3A, lower panel). […]

[5] = target: T2, CRBN-ASS1 interaction; assay: MAPPIT cell microarray screen of ORF library for ligand-induced CRBN neosubstrates; format: cell-based; details: HEK293T cells, CC-220 at 10 μM, fluorescence reporter read 48 hours later

ASS1 steady state levels (Western blot, in words) [2] | Compound | patients showing worsening of kidney function [1] [%] | patients with severe kidney dysfunction [1] [%] | inhibition of hybrid-ligand induced luciferase reporter activation (in words) [3] | recruitment of ASS1 into CRBN complex by co-immunoprecipitation (in words) [4] | ligand-induced ASS1 interaction with CRBN in cell microarray screen (in words) [5]
– | Nc1cccc2c1CN(C1CCC(=O)NC1=O)C2=O (stereo not drawn) [LEN, lenalidomide] | 66 | 32 | – | – | –
decrease in a dose responsive manner | O=C1CC[C@H](N2Cc3c(OCc4ccc(CN5CCOCC5)cc4)cccc3C2=O)C(=O)N1 [CC-220] | – | – | specifically inhibit hybrid-ligand induced luciferase reporter activation in a dose dependent manner | specifically induces the recruitment of ASS1 into a CRBN-CC220 complex | identified Argininosuccinate Synthase 1 (ASS1) as a novel CC220-induced CRBN neosubstrate
